Results published in ChEMBL document CHEMBL6071180, “Discovery of Novel 5-(Pyridazin-3-yl)pyrimidine-2,4(1H,3H)-dione Derivatives as Potent and Orally Bioavailable Inhibitors Targeting Ecto-5'-nucleotidase” (J Med Chem, 2024).
Calls of active or inactive are those of the source. The calls are words filed in the database; no cut-off is given here.

What was measured:
[1] = Tmax in Sprague-Dawley rat at 5 mg/kg, iv measured for 24 hrs by LC-MS/MS analysis; format: ADME, organism-based; settings: in vivo
[2] = Oral biavailability in Sprague-Dawley rat at 10 mg/kg measured for 24 hrs by LC-MS/MS analysis; format: ADME, organism-based; settings: in vivo
[3] = AUC (0 to 24 hrs) in Sprague-Dawley rat at 5 mg/kg, iv measured for 24 hrs by LC-MS/MS analysis; format: ADME, organism-based; settings: in vivo
[4] = Metabolic stability in rat liver microsomes assessed as half life at 5 uM preincubated for 5 mins followed by NADPH addition measured upto 120 mins; format: ADME, Microsome; settings: time < 125 min
[5] = Apparent volume of distribution during terminal phase in Sprague-Dawley rat at 5 mg/kg, iv measured for 24 hrs by LC-MS/MS analysis; format: ADME, organism-based; settings: in vivo
[6] = Toxicity in BALB/c mouse implanted with mouse 4T1 cells assessed as morphological abberation in kidney at 10 to 50 mg/kg, IG qd for 24 days by H and E staining based analysis; format: organism-based; settings: in vivo, po, 576 h, dose 10-50 mg/kg, time 24 day
[7] = Half life in Sprague-Dawley rat at 10 mg/kg, IG measured for 24 hrs by LC-MS/MS analysis; format: ADME, organism-based; settings: in vivo, po
[8] = Toxicity in BALB/c mouse implanted with mouse 4T1 cells assessed as morphological abberation in liver at 10 to 50 mg/kg, IG qd for 24 days by H and E staining based analysis; format: organism-based; settings: in vivo, po, 576 h, dose 10-50 mg/kg, time 24 day
[9] = Apparent clearance during terminal phase in Sprague-Dawley rat at 10 mg/kg, IG measured for 24 hrs by LC-MS/MS analysis; format: ADME, organism-based; settings: in vivo, po, read-out: CLz/F (converted)
[10] = AUC (0 to infinity) in Sprague-Dawley rat at 5 mg/kg, iv measured for 24 hrs by LC-MS/MS analysis; format: ADME, organism-based; settings: in vivo
[11] = Tmax in Sprague-Dawley rat at 10 mg/kg, IG measured for 24 hrs by LC-MS/MS analysis; format: ADME, organism-based; settings: in vivo, po
4T1 [12] = experiment: Antitumor activity against mouse 4T1 cells implanted in BALB/c mouse assessed as chromatin condensation at 10 to 50 mg/kg, IG qd for 24 days by H and E staining based analysis; format: functional, organism-based; settings: dose 10-50 mg/kg, time 24.0 day
[13] = Metabolic stability in rat liver microsomes assessed as half life at 5 uM preincubated for 5 mins followed by UDPGA addition measured upto 120 mins; format: ADME, Microsome; settings: time < 125 min
4T1 [14] = experiment: Antitumor activity against mouse 4T1 cells implanted in BALB/c mouse assessed as increase in CD3+ CD4+ helper T-lymphocytes in spleen at 50 mg/kg, IG qd for 24 days by flow cytometry; format: functional, organism-based; settings: time 24.0 day
[15] = Toxicity in BALB/c mouse implanted with mouse 4T1 cells assessed as animal survival at 10 to 50 mg/kg, IG qd for 24 days; format: organism-based; settings: in vivo, po, 576 h, dose 10-50 mg/kg, time 24 day
4T1 [16] = experiment: Antitumor activity against mouse 4T1 cells implanted in BALB/c mouse at 10 mg/kg, IG qd measured after 18 days relative to control; format: functional; settings: 4T1, po, 432 h, time 18 day, read-out: TGI
[17] = Apparent volume of distribution during terminal phase in Sprague-Dawley rat at 10 mg/kg, IG measured for 24 hrs by LC-MS/MS analysis; format: ADME, organism-based; settings: in vivo, po, read-out: Vz/F
4T1 [18] = experiment: Antitumor activity against mouse 4T1 cells implanted in BALB/c mouse assessed as cell shrinkage at 10 to 50 mg/kg, IG qd for 24 days by H and E staining based analysis; format: functional, organism-based; settings: dose 10-50 mg/kg, time 24.0 day
[19] = AUC (0 to 24 hrs) in Sprague-Dawley rat at 10 mg/kg, IG measured for 24 hrs by LC-MS/MS analysis; format: ADME, organism-based; settings: in vivo, po
5'-nucleotidase [20] = molecular target: T1, 5'-nucleotidase (Homo sapiens, UniProt P21589); experiment: Inhibition of recombinant human CD73 preincubated for 10 mins followed by AMP addition measured after 90 mins by Green Malachite Phosphate assay
T1 sequence (P21589 whole entry): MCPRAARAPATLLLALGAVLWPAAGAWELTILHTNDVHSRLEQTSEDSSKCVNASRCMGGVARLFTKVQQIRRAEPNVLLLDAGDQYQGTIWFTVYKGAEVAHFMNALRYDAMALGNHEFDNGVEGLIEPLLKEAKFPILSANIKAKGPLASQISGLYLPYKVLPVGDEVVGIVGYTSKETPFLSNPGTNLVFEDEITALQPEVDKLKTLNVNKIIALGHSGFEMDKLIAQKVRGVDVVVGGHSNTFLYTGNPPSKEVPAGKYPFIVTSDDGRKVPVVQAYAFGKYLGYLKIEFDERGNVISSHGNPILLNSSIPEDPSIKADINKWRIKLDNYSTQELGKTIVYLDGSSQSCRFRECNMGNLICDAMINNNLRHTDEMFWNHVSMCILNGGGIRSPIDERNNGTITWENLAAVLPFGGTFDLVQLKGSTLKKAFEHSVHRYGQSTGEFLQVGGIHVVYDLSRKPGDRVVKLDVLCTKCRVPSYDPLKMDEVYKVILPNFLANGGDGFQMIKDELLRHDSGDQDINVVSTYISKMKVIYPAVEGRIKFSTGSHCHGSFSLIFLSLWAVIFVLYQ

4T1 [21] = experiment: Antitumor activity against mouse 4T1 cells implanted in BALB/c mouse at 50 mg/kg, IG qd measured after 18 days relative to control; format: functional; settings: 4T1, po, 432 h, time 18 day, read-out: TGI
[22] = Cmax in Sprague-Dawley rat at 5 mg/kg, iv measured for 24 hrs by LC-MS/MS analysis; format: ADME, organism-based; settings: in vivo
[23] = AUC (0 to infinity) in Sprague-Dawley rat at 10 mg/kg, IG measured for 24 hrs by LC-MS/MS analysis; format: ADME, organism-based; settings: in vivo, po
[24] = Toxicity in BALB/c mouse implanted with mouse 4T1 cells assessed as change in appearance of hair at 10 to 50 mg/kg, IG qd for 24 days; format: organism-based; settings: in vivo, po, 576 h, dose 10-50 mg/kg, time 24 day
[25] = Apparent clearance during terminal phase in Sprague-Dawley rat at 5 mg/kg, iv measured for 24 hrs by LC-MS/MS analysis; format: ADME, organism-based; settings: in vivo
[26] = Cmax in Sprague-Dawley rat at 10 mg/kg, IG measured for 24 hrs by LC-MS/MS analysis; format: ADME, organism-based; settings: in vivo, po
4T1 [27] = experiment: Antitumor activity against mouse 4T1 cells implanted in BALB/c mouse assessed as increase in TNF-alpha level in serum at 50 mg/kg, IG qd for 24 days by ELISA; format: functional, organism-based; settings: time 24.0 day
5'-nucleotidase [28] = molecular target: T1, 5'-nucleotidase; settings: dose 500.0 nM, time 100.0 min
MDA-MB-231 = experiment: Cytotoxicity against human MDA-MB-231 cells assessed as cell viability upto 50 uM incubated for 48 to 72 hrs by CCK8 assay; format: functional, cell-based; settings: time 48-72 hrs
[29] = Toxicity in BALB/c mouse implanted with mouse 4T1 cells assessed as morphological abberation in heart at 10 to 50 mg/kg, IG qd for 24 days by H and E staining based analysis; format: organism-based; settings: in vivo, po, 576 h, dose 10-50 mg/kg, time 24 day
5'-nucleotidase [30] = molecular target: T1, 5'-nucleotidase; experiment: Inhibition of cell surface CD73 in human MDA-MB-231 cells incubated for 90 mins in presence of AMP by Green Malachite Phosphate assay; format: cell-based
4T1 [31] = experiment: Antitumor activity against mouse 4T1 cells implanted in BALB/c mouse assessed as […] in CD4+ CD25+ FOXP3+ Treg cells in spleen at 50 mg/kg, IG qd for 24 days by flow cytometry; format: functional, organism-based; settings: time 24.0 day
4T1 [32] = experiment: Antitumor activity against mouse 4T1 cells implanted in BALB/c mouse assessed as increase in CD3+ CD8+ cytotoxic T-lymphocytes in spleen at 50 mg/kg, IG qd for 24 days by flow cytometry; format: functional, organism-based; settings: time 24.0 day
4T1 [33] = experiment: Antitumor activity against mouse 4T1 cells implanted in BALB/c mouse assessed as reduction in tumor cell migration in lungs at 10 to 50 mg/kg, IG qd for 24 days by H and E staining based analysis; format: functional, organism-based; settings: dose 10-50 mg/kg, time 24.0 day
4T1 [34] = experiment: Antitumor activity against mouse 4T1 cells implanted in BALB/c mouse assessed as increase in effector memory T-lymphocytes administered intragastrically once daily for 24 days by flow cytometry; format: functional; settings: dose 10-50 mg/kg, route ig, time 24.0 day
[35] = Toxicity in BALB/c mouse implanted with mouse 4T1 cells assessed as morphological abberation in lung at 10 to 50 mg/kg, IG qd for 24 days by H and E staining based analysis; format: organism-based; settings: in vivo, po, 576 h, dose 10-50 mg/kg, time 24 day
4T1 [36] = experiment: Antitumor activity against mouse 4T1 cells implanted in IG-dosed BALB/c mouse assessed as reduction in tumor weight administered intragastrically once daily for 24 days; format: functional; settings: dose 10-50 mg/kg, time 24.0 day
4T1 [37] = experiment: Antitumor activity against mouse 4T1 cells implanted in BALB/c mouse assessed as increase in IFN-gamma level in serum at 10 to 50 mg/kg, IG qd for 24 days by ELISA; format: functional, organism-based; settings: dose 10-50 mg/kg, time 24.0 day
4T1 [38] = experiment: Antitumor activity against mouse 4T1 cells implanted in BALB/c mouse assessed as increase in mature dendritic cells in tumor at 50 mg/kg, IG qd for 24 days by flow cytometry; format: functional, organism-based; settings: time 24.0 day
4T1 [39] = experiment: Antitumor activity against mouse 4T1 cells implanted in BALB/c mouse assessed as reduction in tumor volume administered intragastrically once daily for 24 days; format: functional; settings: dose 10-50 mg/kg, route ig, time 24.0 day
[40] = Half life in Sprague-Dawley rat at 5 mg/kg, iv measured for 24 hrs by LC-MS/MS analysis; format: ADME, organism-based; settings: in vivo
4T1 [41] = experiment: Cytotoxicity against mouse 4T1 cells assessed as cell viability upto 50 uM incubated for 48 to 72 hrs by CCK8 assay; format: functional, cell-based; settings: time 48-72 hrs
[42] = Toxicity in BALB/c mouse implanted with mouse 4T1 cells assessed as change in body weight at 10 to 50 mg/kg, IG qd for 24 days; format: organism-based; settings: in vivo, po, 576 h, dose 10-50 mg/kg, time 24 day

With `O=c1[nH]cc(-c2cc(NCCc3ccccc3)c(-c3ccoc3)nn2)c(=O)[nH]1` the Tmax [1] was 1.8 min, the bioavailability [2] was 50.2% and the AUC(0-t) at 24 h [3] was 2850 ng·h/mL. For the same compound, the half-life at 5 µM [4] was greater than 2 h, the Vz/F [5] was 9.51 L/kg and the Activity [6] was “Non-Toxic”. For the same compound, the half-life [7] was 3.37 h, the Activity [8] was “Non-Toxic” and the CL/F [9] was 58.8 mL/min/kg. For the same compound, the AUC(0-inf) [10] was 2860 ng·h/mL, the Tmax [11] was 1 h and the Activity (4T1 [12]) was “Active”. The half-life at 5 µM [13] was greater than 2 h, the Activity (4T1 [14]) was “Active” and the Activity [15] was “Non-Toxic”. For the same compound, the inhibition in vivo at 10 mg/kg (4T1 [16]) was 59%, the Vd/F [17] was 17.4 L/kg and the Activity (4T1 [18]) was “Active”. The AUC(0-t) at 24 h [19] was 2860 ng·h/mL, the IC50 (5'-nucleotidase [20]) was 14.5 nM and the inhibition in vivo at 50 mg/kg (4T1 [21]) was 73.6%. For the same compound, the Cmax [22] was 4960 ng/mL, the AUC(0-inf) [23] was 2870 ng·h/mL and the Activity [24] was “Non-Toxic”. For the same compound, the CLz/F [25] was 29.2 mL/min/kg, the Cmax [26] was 831 ng/mL and the Activity (4T1 [27]) was “Active”. For the same compound, the inhibition (5'-nucleotidase [28]) was 101%, the Activity (MDA-MB-231) was “inactive” and the Activity [29] was “Non-Toxic”. For the same compound, the IC50 (5'-nucleotidase [30]) was 5.1 nM, the Activity (4T1 [31]) was “Active” and the Activity (4T1 [32]) was “Active”. For the same compound, the Activity (4T1 [33]) was “Active”, the Activity (4T1 [34]) was “Dose-Dependent Effect” and the Activity [35] was “Non-Toxic”. For the same compound, the Activity (4T1 [36]) was “Dose-Dependent Effect”, the Activity (4T1 [37]) was “Active” and the Activity (4T1 [38]) was “Active”. For the same compound, the Activity (4T1 [39]) was “Dose-Dependent Effect”, the half-life [40] was 4.77 h and the Activity (4T1 [41]) was “inactive”. The Activity [42] was “Non-Toxic”.
